B1: IL-1α: recombinant murine interleukin-1 alpha (protein, UniProt P01582 115-270, looked up)
Interleukin-1 alpha: SAPYTYQSDLRYKLMKLVRQKFVMNDSLNQTIYQDVDKHYLSTTWLNDLQQEVKFDMYAYSSGGDDSKYPVTLKISDSQLFVSAQGEDQPVLLKELPETPKLITGSETDLIFFWKSINSKNYFTSAAYPELFIATKEQSRVHLARGLPSMTDFQIS
B2: IL-1β: recombinant murine interleukin-1 beta (protein, UniProt P10749 118-269, looked up)
Interleukin-1 beta: VPIRQLHYRLRDEQQKSLVLSDPYELKALHLNGQNINQQVIFSMSFVQGEPSNDKIPVALGLKGKNLYLSCVMKDGTPTLQLESVDPKQYPKKKMEKRFVFNKIEVKSKVEFESAEFPNWYISTSQAEHKPVFLGNNSGQDIIDFTMESVSS

Tests used:
ABAE cells = experiment: Detection of PS on cultured endothelial cells by 125I-labeled annexin V; assay type: cell-based, bovine; settings: for 125I-Annexin V (% of Max binding), ABAE cells: 24 h, concentration as listed per treatment; for anionic phospholipid-exposure (% of the maximum): ABAE cells, hypoxia/reoxygenation in the presence of sub-toxic cytokine
Experimental: (§1) All reagents were diluted in medium containing 10% serum and incubated with the cells at 37° C. for 24 h.
(§2) To study the effect of hypoxia, cells were seeded on 24 well plates and were incubated in a humidified normoxic atmosphere (21% O2. 5% CO2) for 48 h before being transferred to a humidified hypoxic atmosphere (1% O2, 5% CO2, 94% N2) in a sealed chamber (Billups Rothenberg Inc., Del Mar, Calif.). Cells were incubated in a hypoxic chamber for 24 h at 37° C. and were then returned to a normoxic environment for 4 h at 37° C. The cells were compared to a parallel culture from an identical passage, seeded on the same day and maintained entirely under normoxic conditions. In some studies, IL-1α (10 ng/ml) and TNFα (20 ng/ml) were added to the medium before transfer to the hypoxic chamber.
(§3) After treatment with the reagents described above, treated and control cells were incubated with 7.1 pmoles of ^125I-labeled annexin V (200 μl/well) in the binding buffer. After 2 h incubation at room temperature, cells were washed extensively and dissolved in 0.5 M of NaOH. The entire volume of 0.5 ml was transferred to plastic tubes and counted in a gamma counter. Non-specific binding was determined in the presence of 5 mM EDTA and was subtracted from experimental values. The results were expressed as net pmoles of cell-bound annexin V, normalized per 1×10^6 cells.
(§4) Maximal binding of annexin V was determined on cells simultaneously treated with actinomycin D and TNFα (50 ng/ml of each component). As has been previously reported, these agents cause apoptosis and PS exposure in 90-100% of endothelial cells (Lucas et al., 1998). Basal binding of ^125I-annexin V to untreated cells was determined in the presence of medium with 10% serum. The amount of ^125I-annexin V that bound to the untreated cultures was subtracted from that in the treated cultures. Exposure of PS was calculated according to the following formula: cell-bound annexin V (pmoles) under experimental conditions divided by maximal annexin V binding (pmoles), multiplied by 100. Each study was performed in duplicate and was performed at least three times. Mean values were calculated. The SE of the mean values from three separate experiments was less than 5%.

bEnd.3 cells = experiment: as above; assay type: cell-based, mouse; settings: for 125I-Annexin V (% of Max binding), bEnd.3 cells: 24 h, concentration as listed per treatment
Experimental: as §1, §2, §3, §4

HUVEC and HMVEC = experiment: Induction of PS exposure on endothelial cells by docetaxel (FACS, 3G4 binding); assay type: cell-based, human; settings: 10 nM, 24 hrs
Experimental: (§5) FIG. 24A and FIG. 24B. Induction of PS exposure on endothelial cells by docetaxel. Human umbilical vein endothelial cells (HUVEC) and human microvessel endothelial cells (HMVEC) were treated with 10 nM of docetaxel for 24 hrs. […] The cells were then washed twice, FITC labeled goat anti-mouse IgG was added and the cells incubated for a further 30 mins. on ice. The cells were then washed and analyzed by FACS using a FACSCalibur cytometer (Becton-Dickinson, San Jose, Calif.) with CellQuest acquisition software.
(§6) The induction of PS exposure on endothelial cells by subclinical concentrations of docetaxel was examined in vitro by FACS analysis. Human umbilical vein endothelial cells (HUVEC) and human microvessel endothelial cells (HMVEC) were treated with 10 nM of docetaxel for 24 hrs and examined by FACS. […] Docetaxel incubations for 48 and 72 hrs were also conducted.

tumor cell lines = experiment: Induction of PS exposure on tumor cell lines by docetaxel (FACS); assay type: cell-based; settings: 10 nM, 24 hrs
Experimental: as §5, with “25A, FIG. 25B” for “24A”, “25C.” for “24B.”, “tumor cell lines” for “endothelial cells”, “Mouse lewis lung carcinoma 3LL, mouse colon carcinoma Colo26” for “Human umbilical vein endothelial cells (HUVEC)”, “breast cancer MDA-MB-435” for “microvessel endothelial”, “cells” for “cells (HMVEC)”
FIG. 26. Induction of PS exposure on human breast cancer MDA-MB-231 cells by docetaxel. Human breast cancer MDA-MB-231 cells were treated with 10 nM of docetaxel for 24 hrs. […] The cells were then washed twice, FITC labeled anti-IgG was added and the cells analyzed by FACS, as above. There is a significant increase in ch3G4 binding as compared to control, human IgG.
(§7) The in vitro induction of PS exposure by subclinical concentrations of docetaxel was also examined by FACS analysis using a panel of tumor cell lines. Mouse lewis lung carcinoma 3 LL, mouse colon carcinoma Colo26 and human breast cancer MDA-MB-435 cells were treated with 10 nM of docetaxel for 24 hrs and examined by FACS. […] Docetaxel incubations for 48 and 72 hrs were also conducted.

[1] = tested on: human umbilical vein endothelial cells (HUVEC); experiment: PS exposure on endothelial cells by FACS (3G4 binding), HUVEC; assay type: cell-based; settings: 10 nM docetaxel, 24 hrs, compared to untreated cells
Experimental: as §6

[2] = tested on: human microvessel endothelial cells (HMVEC); experiment: PS exposure on endothelial cells by FACS (3G4 binding), HMVEC; assay type: cell-based; settings: 10 nM docetaxel, 24 hrs, compared to untreated cells
Experimental: as §6

[3] = tested on: Mouse lewis lung carcinoma 3 LL; experiment: PS exposure on tumor cells by FACS (3G4 binding), 3LL; assay type: cell-based; settings: 3 LL cells, 10 nM docetaxel, 24 hrs, compared with untreated cells
Experimental: as §7

[4] = tested on: mouse colon carcinoma Colo26; experiment: PS exposure on tumor cells by FACS (3G4 binding), Colo26; assay type: cell-based; settings: 10 nM docetaxel, 24 hrs, compared with untreated cells
Experimental: as §7

[5] = tested on: human breast cancer MDA-MB-435 cells; experiment: PS exposure on tumor cells by FACS (3G4 binding), MDA-MB-435; assay type: cell-based; settings: 10 nM docetaxel, 24 hrs, compared with untreated cells
Experimental: as §7

Mouse melanoma B16 = experiment: PS exposure on tumor cells by FACS (3G4 binding), B16; assay type: cell-based; settings: docetaxel, compared with untreated cells
[6] = tested on: mouse firbrosarcoma Meth A; experiment: PS exposure on tumor cells by FACS (3G4 binding), Meth A; assay type: cell-based; settings: docetaxel, compared with untreated cells
[7] = breast cancer patients; cited from earlier work
[8] = patients having progressive disease before treatment; cited from earlier work
bEnd.3 endothelial cells = experiment: Induction of PS by H2O2: anti-PS IgM staining and Trypan Blue exclusion

| Molecule | 125I-Annexin V (% of Max binding), ABAE cells (ABAE cells) [%] | 125I-Annexin V (% of Max binding), bEnd.3 cells (bEnd.3 cells) [%] | further results |
| --- | --- | --- | --- |
| TNFα | 7.4 | 13.7 | anionic phospholipid-exposure (% of the maximum) (ABAE cells): 33% |
| CC(=O)O[C@@]12CO[C@@H]1C[C@H](O)[C@@]1(C)C(=O)[C@H](O)C3=C(C)[C@@H](OC(=O)[C@H](O)[C@@H](NC(=O)OC(C)(C)C)c4ccccc4)C[C@@](O)([C@@H](OC(=O)c4ccccc4)[C@H]21)C3(C)C [docetaxel] | – | – | 3G4 binding vs. untreated cells (HUVEC and HMVEC; HMVEC): significant increase in 3G4 binding; 3G4 binding vs. untreated cells (HUVEC and HMVEC; HUVEC): significant increase in 3G4 binding; 3G4 binding vs. untreated cells (tumor cell lines; 3LL, Colo26, MDA-MB-435 cells): significant increase in 3G4 binding; antibody (ch3G4) binding to treated cells (tumor cell lines; MDA-MB-231, vs. human IgG): significant increase in antibody binding; 3G4 binding by FACS (PS exposure) [1]: significant increase in 3G4 binding; 3G4 binding by FACS (PS exposure) [2]: significant increase in 3G4 binding; 3G4 binding by FACS (PS exposure) [3]: significant increase in 3G4 binding; 3G4 binding by FACS (PS exposure) [4]: significant increase in 3G4 binding; 3G4 binding by FACS (PS exposure) [5]: significant increase in 3G4 binding; 3G4 binding by FACS (PS exposure) (Mouse melanoma B16): significant increase in 3G4 binding; 3G4 binding by FACS (PS exposure) [6]: significant increase in 3G4 binding; serum cytokine levels and NK/LAK cell activity [7]: increase in serum IFN-γ, IL-2, IL-6 and GM-CSF cytokine levels and enhancement of NK and LAK cell activity |
| Hypoxia + IL-1α: IL-1α (10 ng/ml) under hypoxia/reoxygenation | 26.0 | 31.0 | – |
| TGF β1: growth factor | 0 | 0 | – |
| FGF-2: human fibroblast growth factor-2 | 0 | 0 | – |
| Interferon | 8.6 | 2.8 | – |
| NC(=O)c1nnn(Cc2cc(Cl)c(C(=O)c3ccc(Cl)cc3)c(Cl)c2)c1N [CAI, carboxyamidotriazole] | – | – | cancer patients with disease stabilization [8]: 49% |
| Scatter factor: recombinant hepatocyte growth factor (HGF or scatter factor) | 0 | 0 | – |
| IL-8: interleukin-8 | 0 | 0 | – |
| IL-6: interleukin-6 | 0 | 0 | – |
| VEGF | 0 | 0 | – |
| IL-10: interleukin-10 | 0 | 0 | – |
| Thrombin | 8.8 | 17.4 | – |
| OO [Hydrogen peroxide, hydrogen peroxide] | 95.5 | 98.4 | externalization of PS by 125I-annexin V binding (ABAE cells; 100 to 200 μM, both cell types): 95%; cells that bound biotinylated annexin V (immunohistochemically) (ABAE cells; ABAE and bEnd.3 cells, 100 to 200 μM): More than 70%; cells with translocation of anionic phospholipids to the external surface (125I-labeled annexin V) (bEnd.3 cells; 200 μM for 2 h): 70-90%; cells with PS detected at the cell surface (bEnd.3 endothelial cells; concentrations as low as 20 μM): about 50%; cell viability (bEnd.3 endothelial cells; high concentrations, 1 hour): 50-60%; cells with PS translocation (bEnd.3 endothelial cells; high concentrations, 1 hour): ~90%; cell viability (bEnd.3 endothelial cells; low levels of H2O2, identical to untreated cells): 95% |
| B1 | 6.4 | 7.5 | anionic phospholipid-exposure (% of the maximum) (ABAE cells): 26% |
| B2 | 5.8 | 5.5 | – |
